Data published in patent publication US11033518B2, “Pharmaceutical composition containing niclosamide for treating axin-GSK3 interaction-related diseases” (BAOBAB PHARM CO., LTD., priority 2017, dated 2021).

Experiments:
[1] = system: colorectal cancer cell lines HCT116, SW480 and DLD-1; experiment: Trypan blue cell viability / apoptosis of colorectal cancer cells; assay type: cell-based; details: 48 hours, trypan blue assay
Protocol: 1×10^5 cells of colorectal cancer cell lines HCT116, SW480 and DLD-1 cell (ATCC, American Type Culture Collection) were cultured overnight in a 6-well plate, and then were washed with PBS, and were cultured in a culture medium treated with niclosamide by each concentration (0 μM, 0.125 μM, 0.25 μM, 0.5 μM, 1 μM, 2 μM, 5 μM and 10 μM) for 48 hours. Apoptosis was measured with trypan blue assay and cell viability was calculated by an equation [1−(number of dead cells/total number of cells)].

[2] = system: TCF/LEF transcriptional activity; experiment: TCF/LEF reporter (Topflash) dual luciferase assay in colorectal cancer cells; assay type: cell-based; details: 0, 0.125, 0.25, 0.5 nM; as concentration increased
Protocol: At first, after treating niclosamide of nM units at concentrations of 0 nM, 0.125 nM, 0.25 nM and 0.5 nM to colorectal cancer cells for 24 hours, the beta-catenin (β-catenin) activity and TCF/LEF reporter (Topflash) activity of colorectal cancer cells were measured.
The TCF/LEF transcriptional activity was carried out by transformation with 100 ng of a reporter gene and 1 ng of transfection control pRL-SV40-Renilla. The reporter activity was measured with a dual luciferase assay system (Promega) in 48 hours after infection, and was standardized by measuring the co-transformed renilla activity, and the reporter gene activity was represented by light units in proportion to light units obtained from the negative control group.

[3] = molecular target: T1, Axin2-GSK3 complex (Homo sapiens, UniProt P49841); experiment: Immunoprecipitation of His-tagged Axin2 from MCF-7 cell lysates; assay type: binding; details: total cell lysates of MCF-7 expressing His-tagged Axin2
T1 construct: Triton X-100 lysates of total cells; endogenous in cells; host or cells: MCF-7 cells; GSK3 is endogenous; His-tagged Axin2 comes from a transfected doxycycline-inducible vector
T1 sequence (P49841 whole entry, one chain of several): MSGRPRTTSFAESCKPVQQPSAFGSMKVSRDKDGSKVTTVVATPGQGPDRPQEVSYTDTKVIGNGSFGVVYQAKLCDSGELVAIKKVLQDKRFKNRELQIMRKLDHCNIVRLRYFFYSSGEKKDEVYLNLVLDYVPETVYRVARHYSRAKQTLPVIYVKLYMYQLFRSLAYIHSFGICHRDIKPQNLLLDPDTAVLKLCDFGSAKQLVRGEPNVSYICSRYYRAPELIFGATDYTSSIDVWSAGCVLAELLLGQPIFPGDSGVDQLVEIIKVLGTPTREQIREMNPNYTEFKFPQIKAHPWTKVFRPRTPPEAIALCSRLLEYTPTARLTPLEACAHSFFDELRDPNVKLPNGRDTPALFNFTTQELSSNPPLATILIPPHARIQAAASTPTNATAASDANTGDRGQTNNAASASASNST
Protocol: In order to confirm whether niclosamide could inhibit Axin-GSK3 interaction, to perform an immunoprecipitation experiment under the condition with or without niclosamide, cell lysates having full-length Axin2 were investigated.
The immunoprecipitation assay was performed as follows (Yook J I, et al. Nat Cell Biol. 8:1398-1406, 2006).
The doxycycline-induced His-tagged Axin2 expression vector was transformed to MCF-7 cell (ATCC, American Type Culture Collection) and was cultured, and was reacted by treating […] (Invitrogen) and niclosamide of each concentration to Triton X-100 lysates of total cells. The protein recovered in beads was subjected to SDS-PAGE, followed by immunoblot analysis, and a control group of 1/20 volume was added.

[4] = system: HCT116 and SW480 cells; experiment: Tumor growth of HCT116 and SW480 cells injected into nude mice; assay type: in vivo; details: intraperitoneal administration daily
Protocol: Next, the effect of niclosamide having tumor formation potential in vivo experiment of HCT116 and SW480 cells was investigated.
Colorectal cancer cell lines HCT116 (5×10^6 cells) and SW480 (5×10^6 cells) were mixed in 100 μl PBS and were injected into flank subcutaneous tissues in female athymic nude mice (6 weeks old). Mice were randomly assigned to two groups and a vehicle and niclosamide were intraperitoneally injected daily and they were treated for […]. Niclosamide was dissolved with 10% Cremophor EL (BASF) and 0.9% NaCl and then was intraperitoneally injected. After injection of colorectal cancer cells, mice were observed daily and the weight change was measured twice a week. In addition, when a tumor was observed, it was measured with calipers. The tumor size was calculated by the equation (LXW2)/2. Herein, L is a long diameter of the tumor and W is a short diameter.

[5] = system: intestinal adenoma; experiment: Adenoma formation in APC-MIN mice model; assay type: in vivo
Protocol: In addition, in order to confirm the therapeutic effect of niclosamide in vivo, the effect of niclosamide affecting on adenoma formation in APC-MIN (multiple intestinal neoplasia, APCΔ850) mice model was confirmed.
APC-MIN mice were prepared by crossbreeding of wild-type C57BL/6J (APC+/+) females and MIN C57BL/6J (APCMin/+) males, and APC-MIN descendants were randomly assigned in subgroups at 3 weeks age by identifying with PCR-based assay. A vehicle or niclosamide (50 mg/kg) was intraperitoneally injected daily (6 days/week), and mice were observed daily, and the weight was measured twice a week. After the end of 14 weeks, mice were sacrificed and the whole intestine was collected and intestinal flakes were opened longitudinally with scissors, and were washed with saline and were unfolded, and then tissues were obtained. The tissues were fixed with 10% formalin for 24 hours and were washed with 70% alcohol. The fixed intestinal tissues were observed using a stereomicroscope, and the size of adenoma (small, <1 mm; medium 1˜3 mm; large >3 mm) was discriminated and counted for each mouse. In case of oral administration, APC-MIN mice ingested niclosamide mixed with 15% sugar gel vehicle daily (6 days/week) for 14 weeks. The number and size of adenoma were measured with a stereomicroscope.

[6] = molecular target: Helicobacter pylori CagA - GSK3 binding (Homo sapiens, UniProt P49841); experiment: Immunoprecipitation of CagA and GSK3; details: various amounts
Helicobacter pylori CagA - GSK3 binding, sequence (P49841 whole entry): as the sequence (P49841 whole entry, one chain of several) above
Excerpt: (§1) In view of the results of Examples 2˜5 that niclosamide inhibited Wnt activity and EMT through Axin-GSK3 inhibition, and that CagA of Helicobacter (Helicobacter pylori) bound to GSK-3 similarly to Axin, the effect of GSK-3 binding and Snail induction by CagA of Helicobacter pylori by niclosamide was confirmed. It was confirmed that binding of CagA and GSK3 was inhibited by niclosamide similarly to Axin 2, when examining with immunoprecipitation after adding various amounts of niclosamide to this sample (FIG. 10A). In addition, it could be seen that Snail expression by CagA was inhibited when treating niclosamide after inducing CagA and Snail expression in the 293 cell (FIG. 10B). Through such a result, it could be seen that niclosamide inhibited the function of CagA performing function similar to Axin and thereby inhibited gastric cancer occurrence and inflammation by Helicobacter.

[7] = system: Snail expression by CagA; experiment: Snail expression induced by CagA in the 293 cell; assay type: cell-based
Excerpt: as §1

[8] = orally administered for 14 weeks

## O=C(Nc1ccc([N+](=O)[O-])cc1Cl)c1cc(Cl)ccc1O [niclosamide]
[1]; nM concentration
  apoptosis: did not occur
[1]; μM concentration level
  death of colorectal cells: induced death
[2]
  TCF/LEF transcriptional activity: reduced
[3]
  GSK3 which bound to Axin2: reduced
[4]
  tumor growth of colorectal cancer cells: significantly inhibited
[5]; intraperitoneal 50 mg/kg daily, 14 weeks
  body weight: did not change
[5]; intraperitoneal 50 mg/kg daily, at 14 weeks
  intestinal adenoma: significantly reduced
[5]; [8]
  condition of experimental animal: stable during the drug treatment
  intestinal adenoma formation: significantly inhibited
[6]
  binding of CagA and GSK3: inhibited
[7]
  Snail expression by CagA: inhibited
